Here are results for eleven compounds from ChEMBL document CHEMBL5154670, “Discovery of selective irreversible inhibitors of B-Lymphoid tyrosine kinase (BLK)” (Eur J Med Chem, 2022).

Calls of active or inactive are those of the source. The rule behind the calls is not given here.

Data set [1] deals with T1, Tyrosine-protein kinase BTK (Homo sapiens, UniProt Q06187). Nature of the data set: Inhibition of wild type N-terminal GST tagged BTK (unknown origin) (2 to 659 residues) expressed in sf21 insect cell using TK as substrate incubated for 50 mins in presence of ATP by HTRF assay. (In general: In TR-FRET formats the signal depends on donor and acceptor labels being close together.)
T1 sequence (Q06187 whole entry, the tested form may be a part): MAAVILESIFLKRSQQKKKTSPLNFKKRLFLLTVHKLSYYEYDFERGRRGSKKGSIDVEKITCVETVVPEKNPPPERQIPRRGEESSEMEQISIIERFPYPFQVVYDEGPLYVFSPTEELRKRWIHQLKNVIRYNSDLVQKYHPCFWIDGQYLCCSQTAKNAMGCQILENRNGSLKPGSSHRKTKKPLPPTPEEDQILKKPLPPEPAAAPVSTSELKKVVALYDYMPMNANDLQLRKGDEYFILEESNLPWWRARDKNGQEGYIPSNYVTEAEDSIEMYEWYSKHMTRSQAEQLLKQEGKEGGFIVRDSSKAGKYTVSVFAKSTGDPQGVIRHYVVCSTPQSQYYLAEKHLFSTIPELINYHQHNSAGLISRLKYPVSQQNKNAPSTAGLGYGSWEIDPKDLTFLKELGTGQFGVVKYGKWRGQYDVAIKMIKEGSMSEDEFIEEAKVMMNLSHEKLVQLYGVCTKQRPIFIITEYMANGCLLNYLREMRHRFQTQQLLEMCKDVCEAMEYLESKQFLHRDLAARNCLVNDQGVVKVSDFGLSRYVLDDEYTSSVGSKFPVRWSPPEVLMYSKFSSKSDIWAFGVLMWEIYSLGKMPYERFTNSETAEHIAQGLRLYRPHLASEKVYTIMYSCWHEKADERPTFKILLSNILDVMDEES

For data set [2], the species on record is Homo sapiens. Nature of the data set: Selectivity ratio, ratio of IC50 for inhibition of BTK (unknown origin) to IC50 for inhibition of BLK (unknown origin).
Data set [3] concerns the target T2, Tyrosine-protein kinase Blk (Homo sapiens, UniProt P51451). Briefly: Irreversible inhibition of wild type N-terminal GST tagged BLK (unknown origin) (1 to 505 residues) expressed in sf21 insect cell at 3 uM incubated for 4 hrs and measured after 48 hrs dialysis.
Target sequence in this assay (P51451 2-505 limits assumed): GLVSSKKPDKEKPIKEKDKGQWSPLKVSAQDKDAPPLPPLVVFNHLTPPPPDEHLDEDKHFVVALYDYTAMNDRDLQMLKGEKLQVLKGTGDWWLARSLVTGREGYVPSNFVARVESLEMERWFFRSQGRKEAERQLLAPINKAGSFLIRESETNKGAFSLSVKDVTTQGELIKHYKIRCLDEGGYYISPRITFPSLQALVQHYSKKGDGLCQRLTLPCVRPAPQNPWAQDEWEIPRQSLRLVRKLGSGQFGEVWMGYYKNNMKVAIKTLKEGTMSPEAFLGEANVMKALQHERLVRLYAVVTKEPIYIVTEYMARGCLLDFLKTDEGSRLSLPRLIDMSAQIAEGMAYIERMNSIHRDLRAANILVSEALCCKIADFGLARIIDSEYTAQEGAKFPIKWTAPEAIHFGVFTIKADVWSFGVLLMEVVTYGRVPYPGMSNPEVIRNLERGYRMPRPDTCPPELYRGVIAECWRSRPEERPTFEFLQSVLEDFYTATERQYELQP
Data set [4] concerns the target T2, Tyrosine-protein kinase Blk. Briefly: Inhibition of wild type N-terminal GST tagged BLK (unknown origin) (1 to 505 residues) expressed in sf21 insect cell using TK as substrate incubated for 50 mins in presence of ATP by HTRF assay.
Target sequence in this assay (P51451 whole entry, the tested form may be a part): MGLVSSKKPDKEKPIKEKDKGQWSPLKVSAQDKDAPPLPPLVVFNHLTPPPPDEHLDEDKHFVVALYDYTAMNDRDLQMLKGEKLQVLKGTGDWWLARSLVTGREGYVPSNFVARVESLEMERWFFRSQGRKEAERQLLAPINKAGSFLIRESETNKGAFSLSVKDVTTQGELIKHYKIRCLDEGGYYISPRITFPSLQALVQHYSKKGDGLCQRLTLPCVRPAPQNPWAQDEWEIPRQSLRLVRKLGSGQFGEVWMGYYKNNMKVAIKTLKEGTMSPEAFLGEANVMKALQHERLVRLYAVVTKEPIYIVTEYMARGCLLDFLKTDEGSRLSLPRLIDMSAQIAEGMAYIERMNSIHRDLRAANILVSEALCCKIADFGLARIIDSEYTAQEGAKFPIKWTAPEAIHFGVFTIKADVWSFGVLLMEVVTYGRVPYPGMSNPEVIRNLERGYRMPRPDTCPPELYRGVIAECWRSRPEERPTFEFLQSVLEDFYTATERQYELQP
Data set [5] has the same target. Briefly: Inhibition of (S)-3-(3-(5-acrylamido-6-(3-(5-(2-methyl-5-(3-(trifluoromethyl)benzamido)benzamido)pyrimidin-2-ylamino)phenylamino)-6-oxohexylamino)-3-oxopropyl)-5,5-difluoro-7,9-dimethyl-5H-dipyrrolo[1,2-c:1',2'-f][1,3,2]diazaborinin-4-ium-5-uide binding to BLK in human NAMALVA cells preincubated for 1 hr followed by compound washout for three times and treated with probe for 1 hr by competitive labeling assay. Type of data set: cell-based.
Target sequence in this assay (P51451 whole entry, the tested form may be a part): as above

The target in data set [6] is T1, Tyrosine-protein kinase BTK. Nature of the data set: Inhibition of BTK in goat anti-human IgM antibody stimulated human Ramos cells assessed as BTK autophosphorylation at […] residue preincubated for 1 hr followed by antibody stimulation by Western blot analysis. The class given is cell-based. For orientation: A western blot detects proteins with antibodies after separation by electrophoresis.

The target is the same in data set [7]. Nature of the data set: Inhibition of BTK in goat anti-human IgM antibody stimulated human Ramos cells assessed as PLCgamma2 phosphorylation preincubated for 1 hr followed by antibody stimulation by Western blot analysis. Type of data set: cell-based.
The target of data set [8] is T2, Tyrosine-protein kinase Blk. Nature of the data set: Inhibition of BLK in goat anti-human IgM antibody stimulated human Ramos cells assessed as BLK autophosphorylation at Tyr 389 residue at 0.3 uM preincubated for 1 hr followed by compound washout for 2 hrs and antibody stimulation by Western blot analysis. Type of data set: cell-based.
Target sequence in this assay (P51451 2-505 limits assumed): as the sequence (P51451 2-505 limits assumed) above
Data set [9] has the same target. Briefly: Inhibition of BLK (unknown origin) at 0.3 uM relative to control.
Target sequence in this assay (P51451 2-505 limits assumed): as above
In data set [10] the test system is SU-DHL-6. Briefly: Antiproliferative activity against human SU-DHL-6 cells assessed as cell growth inhibition incubated for 72 hrs by celltiter-glo luminescent cell viability assay. The class given is functional.
For data set [11], the target named is T1, Tyrosine-protein kinase BTK. Nature of the data set: Inhibition of BTK (unknown origin) at 0.3 uM relative to control.
Data set [12] concerns the target Cytoplasmic tyrosine-protein kinase BMX (Homo sapiens) (UniProt P51813). Nature of the data set: Inhibition of BMX (unknown origin) at 0.3 uM relative to control.
The target of data set [13] is Epidermal growth factor receptor (Homo sapiens) (UniProt P00533). Nature of the data set: Inhibition of EGFR (unknown origin) at 0.3 uM relative to control.
Sequence of Epidermal growth factor receptor (Homo sapiens) (P00533 whole entry): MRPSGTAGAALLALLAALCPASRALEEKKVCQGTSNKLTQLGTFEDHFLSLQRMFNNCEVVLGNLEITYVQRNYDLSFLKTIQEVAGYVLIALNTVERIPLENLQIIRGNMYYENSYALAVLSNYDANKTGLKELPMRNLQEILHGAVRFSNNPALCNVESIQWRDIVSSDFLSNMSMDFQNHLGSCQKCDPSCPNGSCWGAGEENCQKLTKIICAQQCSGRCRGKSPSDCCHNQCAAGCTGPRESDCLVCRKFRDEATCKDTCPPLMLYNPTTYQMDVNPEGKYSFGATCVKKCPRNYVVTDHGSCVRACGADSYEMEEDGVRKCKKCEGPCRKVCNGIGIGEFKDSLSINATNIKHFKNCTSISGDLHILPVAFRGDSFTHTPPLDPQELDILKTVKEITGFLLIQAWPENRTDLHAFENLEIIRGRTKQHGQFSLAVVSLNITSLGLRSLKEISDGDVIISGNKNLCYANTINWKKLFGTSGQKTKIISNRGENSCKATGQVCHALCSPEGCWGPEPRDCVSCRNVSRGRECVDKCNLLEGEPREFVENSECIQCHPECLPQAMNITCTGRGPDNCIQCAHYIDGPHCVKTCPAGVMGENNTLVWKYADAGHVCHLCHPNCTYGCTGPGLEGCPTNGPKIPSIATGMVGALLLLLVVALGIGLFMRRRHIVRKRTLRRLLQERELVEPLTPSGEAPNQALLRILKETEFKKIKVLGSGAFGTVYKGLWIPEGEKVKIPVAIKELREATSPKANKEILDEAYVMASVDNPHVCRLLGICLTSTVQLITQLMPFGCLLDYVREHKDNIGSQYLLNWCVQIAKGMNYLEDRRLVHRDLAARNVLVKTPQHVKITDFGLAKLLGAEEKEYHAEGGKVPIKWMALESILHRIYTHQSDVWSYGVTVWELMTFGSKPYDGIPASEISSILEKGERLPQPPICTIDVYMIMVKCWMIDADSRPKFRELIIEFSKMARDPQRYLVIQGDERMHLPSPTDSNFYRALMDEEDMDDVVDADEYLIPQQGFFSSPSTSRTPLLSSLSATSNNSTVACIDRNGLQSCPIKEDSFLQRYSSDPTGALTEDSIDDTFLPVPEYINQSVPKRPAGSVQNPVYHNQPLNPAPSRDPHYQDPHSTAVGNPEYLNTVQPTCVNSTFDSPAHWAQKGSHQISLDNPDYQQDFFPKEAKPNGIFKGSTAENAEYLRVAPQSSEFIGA
Data set [14] has as its target Receptor tyrosine-protein kinase erbB-4 (Homo sapiens) (UniProt Q15303). Nature of the data set: Inhibition of HER4 (unknown origin) at 0.3 uM relative to control.
Data set [15] deals with Tyrosine-protein kinase TXK (Homo sapiens) (UniProt P42681). Briefly: Inhibition of TXK (unknown origin) at 0.3 uM relative to control.
The target of data set [16] is Receptor tyrosine-protein kinase erbB-2 (Homo sapiens) (UniProt P04626). Briefly: Inhibition of HER2 (unknown origin) at 0.3 uM relative to control.
Data set [17] deals with Tyrosine-protein kinase Tec (Homo sapiens) (UniProt P42680). Briefly: Inhibition of TEC (unknown origin) at 0.3 uM relative to control.
Data set [18] deals with Tyrosine-protein kinase ITK/TSK (Homo sapiens) (UniProt Q08881). Briefly: Inhibition of ITK (unknown origin) at 0.3 uM relative to control.
Sequence of Tyrosine-protein kinase ITK/TSK (Homo sapiens) (Q08881 whole entry): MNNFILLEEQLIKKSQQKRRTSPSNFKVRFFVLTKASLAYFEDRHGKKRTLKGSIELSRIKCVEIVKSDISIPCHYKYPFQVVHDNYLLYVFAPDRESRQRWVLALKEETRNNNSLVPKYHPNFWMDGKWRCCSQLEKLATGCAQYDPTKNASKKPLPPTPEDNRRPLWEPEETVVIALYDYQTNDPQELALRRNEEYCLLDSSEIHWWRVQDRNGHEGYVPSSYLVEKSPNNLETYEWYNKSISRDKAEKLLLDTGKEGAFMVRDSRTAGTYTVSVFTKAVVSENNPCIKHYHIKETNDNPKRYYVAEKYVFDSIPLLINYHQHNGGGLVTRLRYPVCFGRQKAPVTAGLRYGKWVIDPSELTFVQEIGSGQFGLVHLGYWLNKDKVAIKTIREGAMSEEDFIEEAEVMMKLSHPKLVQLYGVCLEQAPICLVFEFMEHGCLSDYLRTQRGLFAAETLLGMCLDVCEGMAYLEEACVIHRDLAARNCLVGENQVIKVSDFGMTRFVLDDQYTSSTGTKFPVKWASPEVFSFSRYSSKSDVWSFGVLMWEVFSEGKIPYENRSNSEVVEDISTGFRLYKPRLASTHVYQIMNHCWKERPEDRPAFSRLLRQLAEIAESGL
The subject of data set [19] is DOHH-2. Briefly: Antiproliferative activity against human DOHH-2 cells assessed as cell growth inhibition incubated for 72 hrs by celltiter-glo luminescent cell viability assay. The class given is functional. In general terms: ATP-based viability assays read luminescence as a measure of living cells.
Data set [20] concerns OCI-Ly7. Briefly: Antiproliferative activity against human OCILY7 cells assessed as cell growth inhibition incubated for 72 hrs by celltiter-glo luminescent cell viability assay. Type of data set: functional.
Data set [21] has as its system SU-DHL10. Briefly: Antiproliferative activity against human SU-DHL-10 cells assessed as cell growth inhibition incubated for 72 hrs by celltiter-glo luminescent cell viability assay. Type of data set: functional.
In data set [22] the test system is Pfeiffer. Briefly: Antiproliferative activity against human Pfeiffer cells assessed as cell growth inhibition incubated for 72 hrs by celltiter-glo luminescent cell viability assay. The class given is functional.
For data set [23], the system named is TMD8. Nature of the data set: Antiproliferative activity against human TMD8 cells assessed as cell growth inhibition incubated for 72 hrs by celltiter-glo luminescent cell viability assay. The class given is functional.
A short description of data set [24]: Antiproliferative activity against human HBL1 cells assessed as cell growth inhibition incubated for 72 hrs by celltiter-glo luminescent cell viability assay. Type of data set: functional.
Data set [25] concerns Jurkat. Nature of the data set: Antiproliferative activity against human Jurkat cells assessed as cell growth inhibition incubated for 72 hrs by celltiter-glo luminescent cell viability assay. The class given is functional.
Data set [26] concerns MOLT-4. Briefly: Antiproliferative activity against human MOLT-4 cells assessed as cell growth inhibition incubated for 72 hrs by celltiter-glo luminescent cell viability assay. Type of data set: functional.
Data set [27] concerns A-375. Nature of the data set: Antiproliferative activity against human A-375 cells assessed as cell growth inhibition incubated for 72 hrs by celltiter-glo luminescent cell viability assay. Type of data set: functional.
The test system of data set [28] is A-431. Briefly: Antiproliferative activity against human A-431 cells assessed as cell growth inhibition incubated for 72 hrs by celltiter-glo luminescent cell viability assay. Type of data set: functional.
The test system of data set [29] is A549. Nature of the data set: Antiproliferative activity against human A549 cells assessed as cell growth inhibition incubated for 72 hrs by celltiter-glo luminescent cell viability assay. The class given is functional.
The test system of data set [30] is HCT-116. Briefly: Antiproliferative activity against human HCT-116 cells assessed as cell growth inhibition incubated for 72 hrs by celltiter-glo luminescent cell viability assay. Type of data set: functional.
Data set [31] has as its system MDA-MB-453. Briefly: Antiproliferative activity against human MDA-MB-453 cells assessed as cell growth inhibition incubated for 72 hrs by celltiter-glo luminescent cell viability assay. The class given is functional.
Data set [32] can be described thus: Antiproliferative activity against human PBMC cells assessed as cell growth inhibition incubated for 72 hrs by celltiter-glo luminescent cell viability assay. Type of data set: toxicity, cell-based.
A short description of data set [33]: Antiproliferative activity against HEK293 cells assessed as cell growth inhibition incubated for 72 hrs by celltiter-glo luminescent cell viability assay. The conditions noted are these: human. The class given is toxicity, cell-based.
Data set [34] concerns DOHH-2. Nature of the data set: Downregulation of CDK2 expression in human DOHH-2 cells at 0.1 to 0.3 uM incubated for 24 hrs by Western blot analysis. The class given is functional, cell-based. Particulars: dose 0.1-0.3 µM.
Data set [35] concerns SU-DHL-6. Briefly: Downregulation of CDK2 expression in human SU-DHL-6 cells at 0.1 to 0.3 uM incubated for 24 hrs by Western blot analysis. The class given is functional, cell-based. Particulars: dose 0.1-0.3 µM.
In data set [36] the test system is SU-DHL-6. Nature of the data set: Downregulation of CDK2 expression in human SU-DHL-6 cells at 0.3 uM incubated for 24 hrs by Western blot analysis. The class given is functional, cell-based.
Data set [37] is described as follows: Downregulation of CDK2 expression in human SU-DHL-6 cells at 0.3 uM preincubated for 1 hr followed by compound washout for 11 hrs and further incubated for 1 hr with compound followed by second washout for 11hrs by Western blot analysis. The class given is functional. Particulars: time 2 hrs.

Sequence of Receptor tyrosine-protein kinase erbB-4 (Homo sapiens) (Q15303 whole entry): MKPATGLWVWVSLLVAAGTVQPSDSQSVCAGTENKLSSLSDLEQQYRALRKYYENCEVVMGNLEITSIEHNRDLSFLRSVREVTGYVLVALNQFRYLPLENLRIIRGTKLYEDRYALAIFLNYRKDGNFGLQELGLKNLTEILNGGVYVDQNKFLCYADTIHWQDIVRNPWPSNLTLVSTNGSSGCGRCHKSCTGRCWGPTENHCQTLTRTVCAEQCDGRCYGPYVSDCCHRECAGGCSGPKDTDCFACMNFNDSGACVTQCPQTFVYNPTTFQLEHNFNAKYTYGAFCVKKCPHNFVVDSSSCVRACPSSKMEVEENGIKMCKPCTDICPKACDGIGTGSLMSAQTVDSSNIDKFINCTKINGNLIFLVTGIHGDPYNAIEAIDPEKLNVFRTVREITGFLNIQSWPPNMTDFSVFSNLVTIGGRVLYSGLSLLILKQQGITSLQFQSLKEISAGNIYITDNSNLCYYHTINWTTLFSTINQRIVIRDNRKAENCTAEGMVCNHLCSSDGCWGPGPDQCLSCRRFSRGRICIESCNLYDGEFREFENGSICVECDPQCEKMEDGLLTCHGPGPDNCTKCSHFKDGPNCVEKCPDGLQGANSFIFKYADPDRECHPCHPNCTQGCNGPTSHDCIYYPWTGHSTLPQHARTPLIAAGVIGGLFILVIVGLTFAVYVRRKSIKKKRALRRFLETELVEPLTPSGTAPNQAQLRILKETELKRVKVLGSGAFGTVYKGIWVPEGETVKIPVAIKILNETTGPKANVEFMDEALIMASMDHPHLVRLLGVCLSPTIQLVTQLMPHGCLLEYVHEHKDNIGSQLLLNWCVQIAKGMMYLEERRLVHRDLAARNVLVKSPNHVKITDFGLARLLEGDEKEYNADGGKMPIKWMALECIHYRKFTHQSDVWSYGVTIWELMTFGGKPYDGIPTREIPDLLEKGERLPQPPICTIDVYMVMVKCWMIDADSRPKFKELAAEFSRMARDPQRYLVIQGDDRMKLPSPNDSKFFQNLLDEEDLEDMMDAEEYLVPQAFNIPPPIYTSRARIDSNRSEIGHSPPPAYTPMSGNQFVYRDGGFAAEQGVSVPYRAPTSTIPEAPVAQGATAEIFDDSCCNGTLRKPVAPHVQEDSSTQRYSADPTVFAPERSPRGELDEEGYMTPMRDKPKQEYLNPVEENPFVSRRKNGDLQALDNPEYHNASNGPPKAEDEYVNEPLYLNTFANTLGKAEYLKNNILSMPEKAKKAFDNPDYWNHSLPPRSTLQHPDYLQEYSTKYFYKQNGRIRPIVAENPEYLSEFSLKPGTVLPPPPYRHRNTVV

By IC50 is commonly meant the midpoint of a concentration-inhibition curve. Turning to `Cc1ccc(NC(=O)c2ccc3ncccc3c2)cc1C(=O)Nc1cnc(Nc2cccc(N)c2)nc1`, in data set [1], the IC50 was 410 nM.

With `Cc1ccc(NC(=O)c2ccc3cc(Br)ccc3c2)cc1C(=O)Nc1cnc(Nc2cccc(N)c2)nc1`, the IC50 in [1] was determined as 145 nM.

In the case of `Cc1ccc(NC(=O)c2cccc(-c3cccnc3)c2)cc1C(=O)Nc1cnc(Nc2cccc(N)c2)nc1`, in [1], the IC50 stood at 227 nM.

Usually inhibition stands for the relative decrease from the control value, in per cent. By EC50 is commonly meant the concentration giving half of the maximal effect. What is called GI50 is the concentration at which growth is held to half of that of the control. Regarding `Cc1ccc(NC(=O)c2ccc3cnccc3c2)cc1C(=O)Nc1cnc(Nc2cccc(NC3CCN(C(=O)/C=C/CN(C)C)CC3)c2)nc1`, the Ratio IC50 in data set [2] worked out at 34.2. For the same compound, the inhibition entry in data set [3] and in [8] was “Active” throughout. Further, the figures for the IC50 in [4], in [1] and in data set [5] were 5.9 nM, 202 nM and 12 nM, respectively. Further, the EC50 in data set [6] and in data set [7] was > 1000 nM throughout. In addition, the inhibition in data set [9] worked out at 101%; in [11] it was 100%; in data set [12], 99%; in data set [13] it was 97%; in [14], 94%; in [15] it was 83%. Further, the inhibition was 19% in data set [16], 19% in data set [17] and 5% in data set [18]. In addition, the GI50 in [10] came out at 130 nM; in data set [19], 16 nM; in data set [20] it was 20 nM; in data set [21], 560 nM; in [22] it was 2180 nM; in [23], 64 nM. Further, the GI50 was 1340 nM in [24]; 10900 nM in data set [25]; 18800 nM in data set [26]; > 30000 nM in data set [27]; > 30000 nM in [28]; > 30000 nM in [29]. Further, the GI50 in [30] is 8100 nM; in data set [31] it was > 30000 nM. Also, the 50% growth inhibitory concentration (GI50) at 72 h in data set [32] and in [33] was > 30000 nM in each case. The outcome in data set [34], in data set [35] and in data set [36] was Active. In data set [37], the Activity was found to be 55%.

For `Cc1ccc(NC(=O)CC23CC4CC(CC(C4)C2)C3)cc1C(=O)Nc1cnc(Nc2cccc(N)c2)nc1`, in data set [1], the half-inhibitory concentration (IC50) came to 338 nM.

Take `Cc1ccc(NC(=O)c2ccc(-c3ccccc3)cc2)cc1C(=O)Nc1cnc(Nc2cccc(N)c2)nc1`: the IC50 in data set [1] was 255 nM.

For `Cc1ccc(NC(=O)OCc2ccccc2)cc1C(=O)Nc1cnc(Nc2cccc(N)c2)nc1`, in data set [1], the IC50 is 444 nM.

`Cc1ccc(NC(=O)c2ccc3cc(O)ccc3c2)cc1C(=O)Nc1cnc(Nc2cccc(N)c2)nc1`: the IC50 in [1] stood at 212 nM.

`Cc1ccc(NC(=O)c2cccc(-c3ccco3)c2)cc1C(=O)Nc1cnc(Nc2cccc(N)c2)nc1`: in data set [1], the IC50 was found to be 360 nM.

Turning to `Cc1ccc(NC(=O)c2ccc3ccccc3c2)cc1C(=O)Nc1cnc(Nc2cccc(N)c2)nc1`, the IC50 in data set [1] stood at 78.8 nM.

As for `Cc1ccc(NC(=O)c2cccc(-c3ccc(F)cc3)c2)cc1C(=O)Nc1cnc(Nc2cccc(N)c2)nc1`, the half-maximal inhibitory concentration (IC50) in data set [1] was 694 nM.
